Measured values taken from patent US20250099557A1, “ANTIBIOTIC PHARMACEUTICAL COMPOSITION CAPABLE OF SUBCUTANEOUS ADMINISTRATION” (SHANGHAI BAO PHARMACEUTICALS CO., LTD., priority 2021, published 2025).

How the values were obtained:
intestinal flora = experiment: Effects of administration routes on the diversity of intestinal flora in mice (16S rDNA sequencing, OTU); type: in vivo; conditions: C57BL/6 mice, feces
Description: 12 SPF grade C57BL/6 mice were used for each antibiotic mode, and divided into two groups, each having 6 mice. The two groups include an oral administration group, and a subcutaneous administration group combined with recombinant human HAase. A blank control group including 6 mice was also set. The mice in the oral administration group were given the model antibiotic solution by oral gavage for five consecutive days. The mice in the subcutaneous administration group combined with recombinant human HAase were given the same dose of model antibiotic as that in the oral administration group by subcutaneous administration for five consecutive days. The feces of mice in each group were collected on the 1 st, 2nd, 3rd, 4th, 5th, 6th, 8th, 10th and 14th days after five consecutive days of administration, and stored at −80° C., for detecting the microbial diversity later. The fecal samples of each group were amplified and sequenced by 16S rDNA sequencing. After DNA extraction, PCR amplification and gene sequencing, the changes of intestinal bacterial diversity in each group of mice were analyzed. The relative species diversity of the test group was calculated, with the OUT value of the blank control group in each day as a reference, as shown in Table 33.

[1] = Compatibility study of HAase and antibiotic in solution: appearance of the solution; type: physicochemical; conditions: 8 solutions of antibiotic (two concentrations) with HAase 150-6000 units/ml in physiological saline
Method: (§1) The compatibility of HAase and an antibiotic was studied by preparing a solution comprising the two substances. A dry Meropenem power for injection was dissolved in physiological saline to give a concentration of 5 mg/ml and 50 mg/ml, and then HAase was added to give a final concentration of 150, 500, 2000, and 6000 units/ml respectively. After preparation, the solution was left to stand at room temperature for 15 min. The appearance of the solution was observed, and the concentration of HAase was determined.
as §1, with “dry Ceftriaxone sodium” for “dry Meropenem”, “of 50” for “of 5”, “and 250” for “and 50”
as §1, with “dry Azithromycin” for “dry Meropenem”, “of 10” for “of 5”, “and 100” for “and 50”
as §1, with “dry Cefradine powder” for “dry Meropenem power”, “of 50” for “of 5”, “and 250” for “and 50”
as §1, with “dry Teicoplanin powder” for “dry Meropenem power”, “of 10” for “of 5”, “and 70” for “and 50”
as §1, with “dry Ceftazidime powder” for “dry Meropenem power”, “of 20” for “of 5”, “and 200” for “and 50”
as §1, with “dry Ertapenem” for “dry Meropenem”, “of 30” for “of 5”, “and 300” for “and 50”
The compatibility of HAase and an antibiotic was studied by preparing a solution comprising the two substances. A dry Polymyxin B powder for injection was dissolved in physiological saline to give a concentration of 50,000 units/ml and 250,000 units/ml, and then HAase was added to give a final concentration of 150, 500, 2000, and 6000 units/ml respectively.

[2] = in combination with recombinant human HAase for subcutaneous administration, five consecutive days, D1 after administration
[3] = in combination with recombinant human HAase for subcutaneous administration, five consecutive days, D2
[4] = in combination with recombinant human HAase for subcutaneous administration, five consecutive days, D3
[5] = in combination with recombinant human HAase for subcutaneous administration, five consecutive days, D4
[6] = in combination with recombinant human HAase for subcutaneous administration, five consecutive days, D5
[7] = in combination with recombinant human HAase for subcutaneous administration, five consecutive days, D6
[8] = in combination with recombinant human HAase for subcutaneous administration, five consecutive days, D8
[9] = in combination with recombinant human HAase for subcutaneous administration, five consecutive days, D10
[10] = in combination with recombinant human HAase for subcutaneous administration, five consecutive days, D14
[11] = oral administration for five consecutive days, D1 after administration
[12] = oral administration for five consecutive days, D2
[13] = oral administration for five consecutive days, D3
[14] = oral administration for five consecutive days, D4
[15] = oral administration for five consecutive days, D5
[16] = oral administration for five consecutive days, D6
[17] = oral administration for five consecutive days, D8
[18] = oral administration for five consecutive days, D10
[19] = oral administration for five consecutive days, D14

Molecule: CC1=C(C(=O)O)N2C(=O)[C@@H](NC(=O)[C@H](N)C3=CCC=CC3)[C@H]2SC1 [Cefradine]
- Relative abundance of OUT (operational taxonomic units) (intestinal flora; [2]): 35.5%
- Relative abundance of OUT (operational taxonomic units) (intestinal flora; [3]): 37.2%
- Relative abundance of OUT (operational taxonomic units) (intestinal flora; [4]): 36.3%
- Relative abundance of OUT (operational taxonomic units) (intestinal flora; [5]): 36.2%
- Relative abundance of OUT (operational taxonomic units) (intestinal flora; [6]): 36.2%
- Relative abundance of OUT (operational taxonomic units) (intestinal flora; [7]): 37.1%
- Relative abundance of OUT (operational taxonomic units) (intestinal flora; [8]): 42.1%
- Relative abundance of OUT (operational taxonomic units) (intestinal flora; [9]): 42.9%
- Relative abundance of OUT (operational taxonomic units) (intestinal flora; [10]): 48.7%
- Relative abundance of OUT (operational taxonomic units) (intestinal flora; [11]): 24.4%
- Relative abundance of OUT (operational taxonomic units) (intestinal flora; [12]): 23.6%
- Relative abundance of OUT (operational taxonomic units) (intestinal flora; [13]): 20.4%
- Relative abundance of OUT (operational taxonomic units) (intestinal flora; [14]): 22.6%
- Relative abundance of OUT (operational taxonomic units) (intestinal flora; [15]): 20.7%
- Relative abundance of OUT (operational taxonomic units) (intestinal flora; [16]): 24.3%
- Relative abundance of OUT (operational taxonomic units) (intestinal flora; [17]): 25.8%
- Relative abundance of OUT (operational taxonomic units) (intestinal flora; [18]): 28.6%
- Relative abundance of OUT (operational taxonomic units) (intestinal flora; [19]): 31.9%
- appearance of the solution [1]: clear and transparent

Molecule: CC(C)(O/N=C(\C(=O)N[C@@H]1C(=O)N2C(C(=O)[O-])=C(C[n+]3ccccc3)CS[C@H]12)c1csc(N)n1)C(=O)O [Ceftazidime]
- Relative abundance of OUT (operational taxonomic units) (intestinal flora; [2]): 35.5%
- Relative abundance of OUT (operational taxonomic units) (intestinal flora; [3]): 34.0%
- Relative abundance of OUT (operational taxonomic units) (intestinal flora; [4]): 34.3%
- Relative abundance of OUT (operational taxonomic units) (intestinal flora; [5]): 33.7%
- Relative abundance of OUT (operational taxonomic units) (intestinal flora; [6]): 34.3%
- Relative abundance of OUT (operational taxonomic units) (intestinal flora; [7]): 35.1%
- Relative abundance of OUT (operational taxonomic units) (intestinal flora; [8]): 41.6%
- Relative abundance of OUT (operational taxonomic units) (intestinal flora; [9]): 42.3%
- Relative abundance of OUT (operational taxonomic units) (intestinal flora; [10]): 51.3%
- Relative abundance of OUT (operational taxonomic units) (intestinal flora; [11]): 22.8%
- Relative abundance of OUT (operational taxonomic units) (intestinal flora; [12]): 20.9%
- Relative abundance of OUT (operational taxonomic units) (intestinal flora; [13]): 20.4%
- Relative abundance of OUT (operational taxonomic units) (intestinal flora; [14]): 21.1%
- Relative abundance of OUT (operational taxonomic units) (intestinal flora; [15]): 19.2%
- Relative abundance of OUT (operational taxonomic units) (intestinal flora; [16]): 22.3%
- Relative abundance of OUT (operational taxonomic units) (intestinal flora; [17]): 26.8%
- Relative abundance of OUT (operational taxonomic units) (intestinal flora; [18]): 29.6%
- Relative abundance of OUT (operational taxonomic units) (intestinal flora; [19]): 32.5%
- appearance of the solution [1]: clear and transparent

Molecule: CO/N=C(\C(=O)N[C@@H]1C(=O)N2C(C(=O)O)=C(CSc3nc(=O)c(=O)[nH]n3C)CS[C@H]12)c1csc(N)n1 [Ceftriaxone]
- Relative abundance of OUT (operational taxonomic units) (intestinal flora; [2]): 31.5%
- Relative abundance of OUT (operational taxonomic units) (intestinal flora; [3]): 28.8%
- Relative abundance of OUT (operational taxonomic units) (intestinal flora; [4]): 28.9%
- Relative abundance of OUT (operational taxonomic units) (intestinal flora; [5]): 33.2%
- Relative abundance of OUT (operational taxonomic units) (intestinal flora; [6]): 29.1%
- Relative abundance of OUT (operational taxonomic units) (intestinal flora; [7]): 33.2%
- Relative abundance of OUT (operational taxonomic units) (intestinal flora; [8]): 37.9%
- Relative abundance of OUT (operational taxonomic units) (intestinal flora; [9]): 39.3%
- Relative abundance of OUT (operational taxonomic units) (intestinal flora; [10]): 47.1%
- Relative abundance of OUT (operational taxonomic units) (intestinal flora; [11]): 16.8%
- Relative abundance of OUT (operational taxonomic units) (intestinal flora; [12]): 14.7%
- Relative abundance of OUT (operational taxonomic units) (intestinal flora; [13]): 10.4%
- Relative abundance of OUT (operational taxonomic units) (intestinal flora; [14]): 14.1%
- Relative abundance of OUT (operational taxonomic units) (intestinal flora; [15]): 15.5%
- Relative abundance of OUT (operational taxonomic units) (intestinal flora; [16]): 18.3%
- Relative abundance of OUT (operational taxonomic units) (intestinal flora; [17]): 15.8%
- Relative abundance of OUT (operational taxonomic units) (intestinal flora; [18]): 23.0%
- Relative abundance of OUT (operational taxonomic units) (intestinal flora; [19]): 25.7%
- appearance of the solution [1]: clear and transparent

Molecule: C[C@@H](O)[C@H]1C(=O)N2C(C(=O)O)=C(S[C@@H]3CN[C@H](C(=O)Nc4cccc(C(=O)O)c4)C3)[C@H](C)[C@H]12 [Ertapenem]
- Relative abundance of OUT (operational taxonomic units) (intestinal flora; [2]): 30.5%
- Relative abundance of OUT (operational taxonomic units) (intestinal flora; [3]): 30.9%
- Relative abundance of OUT (operational taxonomic units) (intestinal flora; [4]): 28.9%
- Relative abundance of OUT (operational taxonomic units) (intestinal flora; [5]): 31.2%
- Relative abundance of OUT (operational taxonomic units) (intestinal flora; [6]): 28.2%
- Relative abundance of OUT (operational taxonomic units) (intestinal flora; [7]): 33.2%
- Relative abundance of OUT (operational taxonomic units) (intestinal flora; [8]): 36.8%
- Relative abundance of OUT (operational taxonomic units) (intestinal flora; [9]): 36.7%
- Relative abundance of OUT (operational taxonomic units) (intestinal flora; [10]): 39.3%
- Relative abundance of OUT (operational taxonomic units) (intestinal flora; [11]): 16.2%
- Relative abundance of OUT (operational taxonomic units) (intestinal flora; [12]): 13.1%
- Relative abundance of OUT (operational taxonomic units) (intestinal flora; [13]): 10.4%
- Relative abundance of OUT (operational taxonomic units) (intestinal flora; [14]): 14.6%
- Relative abundance of OUT (operational taxonomic units) (intestinal flora; [15]): 16.0%
- Relative abundance of OUT (operational taxonomic units) (intestinal flora; [16]): 15.3%
- Relative abundance of OUT (operational taxonomic units) (intestinal flora; [17]): 15.8%
- Relative abundance of OUT (operational taxonomic units) (intestinal flora; [18]): 20.9%
- Relative abundance of OUT (operational taxonomic units) (intestinal flora; [19]): 24.1%
- appearance of the solution [1]: clear and transparent

Molecule: Teicoplanin
- Relative abundance of OUT (operational taxonomic units) (intestinal flora; [2]): 51.8%
- Relative abundance of OUT (operational taxonomic units) (intestinal flora; [3]): 56.0%
- Relative abundance of OUT (operational taxonomic units) (intestinal flora; [4]): 53.7%
- Relative abundance of OUT (operational taxonomic units) (intestinal flora; [5]): 56.3%
- Relative abundance of OUT (operational taxonomic units) (intestinal flora; [6]): 51.2%
- Relative abundance of OUT (operational taxonomic units) (intestinal flora; [7]): 55.4%
- Relative abundance of OUT (operational taxonomic units) (intestinal flora; [8]): 63.7%
- Relative abundance of OUT (operational taxonomic units) (intestinal flora; [9]): 64.8%
- Relative abundance of OUT (operational taxonomic units) (intestinal flora; [10]): 71.7%
- Relative abundance of OUT (operational taxonomic units) (intestinal flora; [11]): 44.7%
- Relative abundance of OUT (operational taxonomic units) (intestinal flora; [12]): 41.9%
- Relative abundance of OUT (operational taxonomic units) (intestinal flora; [13]): 39.8%
- Relative abundance of OUT (operational taxonomic units) (intestinal flora; [14]): 41.2%
- Relative abundance of OUT (operational taxonomic units) (intestinal flora; [15]): 39.4%
- Relative abundance of OUT (operational taxonomic units) (intestinal flora; [16]): 41.1%
- Relative abundance of OUT (operational taxonomic units) (intestinal flora; [17]): 46.3%
- Relative abundance of OUT (operational taxonomic units) (intestinal flora; [18]): 45.9%
- Relative abundance of OUT (operational taxonomic units) (intestinal flora; [19]): 49.7%
- appearance of the solution [1]: clear and transparent
